Among the data in patent US9604964B2, “Dihydropyrazole GPR40 modulators” (BRISTOL-MYERS SQUIBB COMPANY, priority 2012, dated 2017) are EC50 values, retold here.

Experiment [1] concerns the target T1, human GPR40 (Homo sapiens, UniProt O14842). Put plainly: GPR40 IP-One HTRF assay in HEK293/GPR40 inducible cell lines. It counts as cell-based. Further details: expressed in transfected cells. Particulars: HEK293 cells, tetracycline-inducible human GPR40, IP-One HTRF; read-out: hGPR40 IP1 EC50. How it is done: GPR40 IP-One HTRF Assays in HEK293/GPR40 Inducible Cell Lines
Human, mouse and rat GPR40-mediated intracellular IP-One HTRF assays were established using human embryonic kidney HEK293 cells stably transfected with a tetracycline-inducible human, mouse or rat GPR40 receptor. Cells were routinely cultured in growth medium containing DMEM (Gibco Cat. #:12430-047), 10% qualified FBS (Sigma, Cat. #: F2442), 200 μg/mL hygromycin (Invitrogen, Cat. #: 16087-010) and 1.5 μg/mL blasticidin (Invitrogen, Cat. # R210-01). About 12-15 million cells were passed into a T175 tissue culture flask (BD Falcon 353112) with growth medium and incubated for 16-18 hours (overnight) at 370 C with 5% CO2. The next day, assay medium was exchanged with growth medium containing 1000 ng/mL of tetracycline (Fluka Analytical, Cat. #87128) to induce GPR40 expression for 18-24 hours at […] incubator with 5% CO2. After induction, the cells were washed with PBS (Gibco, Cat. #14190-036) and detached with Cell Stripper (Cellgro, Cat. #25-056-CL). 10-20 mL growth medium were added to the flask and cells were collected in 50 mL tubes (Falcon, Cat.#:352098) and spun at 1000 RPM for 5 minutes. Culture medium was aspirated and the cells were resuspended in 10 mL of 1×IP-One Stimulation Buffer from the Cisbio IP-One kit (Cisbio, Cat. #62IPAPEJ). The cells were diluted to 1.4×10^6 cells/mL in Stimulation Buffer.
Test compounds were 3-fold, 11-point serially diluted in DMSO in a REMP assay plate (Matrix Cat. #: 4307) by BioCel (Agilent). The compounds were transferred into an Echo plate (LABCYTE, Cat. #: LP-0200) and 20 nL of diluted compounds were transferred to an assay plate (proxi-plate from Perkin Elmer, Cat. #6008289) by Echo acoustic nano dispenser (LABCYTE, model ECHO550). 14 μL of the diluted cells were then added to the assay plate by Thermo (SN 836 330) Combi Drop and incubated at room temperature for 45 minutes. Then 3 μL of IP1 coupled to dye D2 from the Cisbio IP-One kit were added to the assay plate followed by 3 μL of Lumi4TM-Tb cryptate K from the kit. The plate was further incubated at room for 1 hour before reading on the Envision (Perkin Elmer Model2101) with an HTRF protocol. Activation data for the test compound over a range of concentrations was plotted as percentage activation of the test compound (100%=maximum response). After correcting for background [(sample read-mean of low control)/(mean of high control−mean of low control)] (low control is DMSO without any compound), EC50 values were determined. The EC50 is defined as the concentration of test compound which produces 50% of the maximal response and was quantified using the 4 parameter logistic equation to fit the data.
On the technique in general: TR-FRET usually uses a lanthanide donor and a delayed reading to cut background.

Experiment [2] deals with T1, human GPR40. As to the kind of experiment: FDSS-based intracellular calcium assay (Human GPR40 in vitro assay). The settings on record: intracellular Ca2+ response, cells expressing GPR40; read-out: hGPR40 EC50. Further details: 3xFLAG; expressed in transfected cells. The experiment is classed as cell-based. How it is done:
FDSS-based Intracellular Calcium Assay
Compounds are dissolved in DMSO and diluted to desired concentrations with assay buffer and added to the cells as 3× solution (20 μL per well). Run fluorescence/luminescence reader FDSS (Hamamatsu) to read intracellular Ca^2+ response.
Background: Calcium flux is commonly read through the fluorescence of an indicator in the cells.

T1 sequence (O14842 whole entry): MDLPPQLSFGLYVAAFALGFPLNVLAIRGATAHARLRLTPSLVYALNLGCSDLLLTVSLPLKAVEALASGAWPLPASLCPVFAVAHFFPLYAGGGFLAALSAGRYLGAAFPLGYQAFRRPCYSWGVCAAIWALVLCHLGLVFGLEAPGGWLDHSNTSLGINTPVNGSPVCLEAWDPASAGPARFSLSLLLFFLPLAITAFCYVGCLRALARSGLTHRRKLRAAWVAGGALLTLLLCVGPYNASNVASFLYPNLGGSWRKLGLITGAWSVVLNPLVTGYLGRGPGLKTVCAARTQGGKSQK

One may read the EC50 as the concentration at which the effect is half-maximal. `CCOc1ccc(F)c(N2CCC(Oc3ccc(N4N=C(C(F)(F)F)[C@@H](C)[C@@H]4CC(=O)O)cc3)C(Cc3ccccc3)C2)c1` (single isomer, unassigned) [Example 28 (Isomer 2)]: the EC50 was 0.23 µM in experiment [1] and 1.32 µM in experiment [2].
Turning to `CCOc1ccc(F)c(N2CCC(Oc3ccc(N4N=C(C(F)(F)F)[C@@H](C)[C@@H]4CC(=O)O)cc3)C(OC)C2)c1` (single isomer, unassigned) [Example 31 (Isomer 1)], the values for the EC50 in experiment [1] and in experiment [2] were 0.013 µM and 0.473 µM, respectively.
For the compound `COc1cc(N2CCC(Oc3ccc(N4N=C(C(F)(F)F)[C@@H](C)[C@@H]4CC(=O)O)cn3)C(C)C2)c(Cl)cn1` (single isomer, unassigned) [Example 103 Isomer 2], the 50% effective concentration (EC50) in experiment [1] amounted to 0.043 µM; in experiment [2], 0.096 µM.
In the same order, the values of `CCOc1ccc(F)c(N2CC[C@@H](Oc3ccc(N4N=C(c5ccc(S(C)(=O)=O)cc5)[C@@H](C)[C@@H]4CC(=O)O)cc3)[C@H](C)C2)c1` [Example 98, 2-((4S,5S)-1-(4-(((3R,4R)-1-(5-ethoxy-2-fluorophenyl)-3-methylpiperidin-4-yl)oxy)phenyl)-4-methyl-3-(4-(methylsulfonyl)phenyl)-4,5-dihydro-1H-pyrazol-5-yl)acetic acid] are 0.025 µM and 0.083 µM.
On to `C[C@@H]1C(C(F)(F)F)=NN(c2ccc(OC3CCN(c4cc(O)ccc4F)CC3)cc2)[C@H]1CC(=O)O` [Example 102, 2-((4S,5S)-1-(4-((1-(2-fluoro-5-hydroxyphenyl)piperidin-4-yl)oxy)phenyl)-4-methyl-3-(trifluoromethyl)-4,5-dihydro-1H-pyrazol-5-yl)acetic acid], for which the concentration for a half-maximal effect (EC50) in experiment [1] stood at 0.131 µM.
Turning to `C[C@@H]1C(C(F)(F)F)=NN(c2ccc(OC3CCN(S(=O)(=O)C4CCCCC4)CC3)cc2)[C@H]1CC(=O)O` [Example B22, 2-((4S,5S)-1-(4-((1-(cyclohexylsulfonyl)piperidin-4-yl)oxy)phenyl)-4-methyl-3-(trifluoromethyl)-4,5-dihydro-1H-pyrazol-5-yl)acetic acid], the EC50 in experiment [2] turned out to be 1.33 µM.
The same measure, in the same setting: for `CC(C)CS(=O)(=O)N1CCC(Oc2ccc(N3N=C(C(F)(F)F)[C@@H](C)[C@@H]3CC(=O)O)cc2)CC1` [Example B23, 2-((4S,5S)-1-(4-((1-(isobutylsulfonyl)piperidin-4-yl)oxy)phenyl)-4-methyl-3-(trifluoromethyl)-4,5-dihydro-1H-pyrazol-5-yl)acetic acid] the value was 2 µM; for `C[C@@H]1C(C(F)(F)F)=NN(c2ccc(OC3CCN(S(=O)(=O)C4CCCC4)CC3)cc2)[C@H]1CC(=O)O` [Example B24, 2-((4S,5S)-1-(4-((1-(Cyclopentylsulfonyl)piperidin-4-yl)oxy)phenyl)-4-methyl-3-(trifluoromethyl)-4,5-dihydro-1H-pyrazol-5-yl)acetic acid], 3.6 µM; for `C[C@@H]1C(C(F)(F)F)=NN(c2ccc(OC3CCN(S(=O)(=O)c4ccccc4C(F)(F)F)CC3)cc2)[C@H]1CC(=O)O` [Example B25, 2-((4S,5S)-4-Methyl-3-(trifluoromethyl)-1-(4-((1-((2-(trifluoromethyl)phenyl)sulfonyl)piperidin-4-yl)oxy)phenyl)-4,5-dihydro-1H-pyrazol-5-yl)acetic acid], 4.42 µM.
On the same count and under the same terms, for `Cc1ccccc1S(=O)(=O)N1CCC(Oc2ccc(N3N=C(C(F)(F)F)[C@@H](C)[C@@H]3CC(=O)O)cc2)CC1` [Example B27, 2-((4S,5S)-4-Methyl-1-(4-((1-(o-tolylsulfonyl)piperidin-4-yl)oxy)phenyl)-3-(trifluoromethyl)-4,5-dihydro-1H-pyrazol-5-yl)acetic acid] the value was 4.85 µM; for `COc1ccnc(N2CCC(Oc3ccc(N4N=C(C(F)(F)F)[C@@H](C)[C@@H]4CC(=O)O)cc3)CC2)n1` [Example B28, 2-((4S,5S)-1-(4-((1-(4-methoxypyrimidin-2-yl)piperidin-4-yl)oxy)phenyl)-4-methyl-3-(trifluoromethyl)-4,5-dihydro-1H-pyrazol-5-yl)acetic acid], 5.27 µM.
Same read-out and setting: the same measure for `COc1nc(N2CCC(Oc3ccc(N4N=C(C(F)(F)F)[C@@H](C)[C@@H]4CC(=O)O)cc3)CC2)ncc1F` [Example B29, 2-((4S,5S)-1-(4-((1-(5-Fluoro-4-methoxypyrimidin-2-yl)piperidin-4-yl)oxy)phenyl)-4-methyl-3-(trifluoromethyl)-4,5-dihydro-1H-pyrazol-5-yl)acetic acid]: 3.68 µM; for `C[C@@H]1C(C(F)(F)F)=NN(c2ccc(OCC3CN(C(=O)OC(C)(C)C)C3)cc2)[C@H]1CC(=O)O` [Example B30, 2-((4S,5S)-1-(4-((1-(tert-Butoxycarbonyl)azetidin-3-yl)methoxy)phenyl)-4-methyl-3-(trifluoromethyl)-4,5-dihydro-1H-pyrazol-5-yl)acetic acid]: 2.77 µM.
In the case of `C[C@@H]1C(C(F)(F)F)=NN(c2ccc(OCC3CN(S(=O)(=O)C4CCCCC4)C3)cc2)[C@H]1CC(=O)O` [Example B31, 2-((4S,5S)-1-(4-((1-(Cyclohexylsulfonyl)azetidin-3-yl)methoxy)phenyl)-4-methyl-3-(trifluoromethyl)-4,5-dihydro-1H-pyrazol-5-yl)acetic acid], the EC50 in experiment [2] stood at 3.77 µM.
On the same count and under the same terms, the same measure for `COc1cccc(N2CC(COc3ccc(N4N=C(C(F)(F)F)[C@@H](C)[C@@H]4CC(=O)O)cc3)C2)c1` [Example B32, 2-((4S,5S)-1-(4-((1-(3-Methoxyphenyl)azetidin-3-yl)methoxy)phenyl)-4-methyl-3-(trifluoromethyl)-4,5-dihydro-1H-pyrazol-5-yl)acetic acid]: 1.09 µM; for `COc1cc(N2CC(COc3ccc(N4N=C(C(F)(F)F)[C@@H](C)[C@@H]4CC(=O)O)cc3)C2)c(Cl)cn1` [Example B33, 2-((4S,5S)-1-(4-((1-(5-chloro-2-methoxypyridin-4-yl)azetidin-3-yl)methoxy)phenyl)-4-methyl-3-(trifluoromethyl)-4,5-dihydro-1H-pyrazol-5-yl)acetic acid]: 0.713 µM; for `C[C@@H]1C(C(F)(F)F)=NN(c2ccc(OCC3CN(c4ccc5c(c4)OCO5)C3)cc2)[C@H]1CC(=O)O` [Example B34, 2-((4S,5S)-1-(4-((1-(benzo[d] [1,3]dioxol-5-yl)azetidin-3-yl)methoxy)phenyl)-4-methyl-3-(trifluoromethyl)-4,5-dihydro-1H-pyrazol-5-yl)acetic acid]: 4.76 µM.
The same measure, in the same setting: the same measure for `COc1ccc(F)c(N2CC(COc3ccc(N4N=C(C(F)(F)F)[C@@H](C)[C@@H]4CC(=O)O)cc3)C2)c1` [Example B35, 2-((4S,5S)-1-(4-((1-(2-fluoro-5-methoxyphenyl)azetidin-3-yl)methoxy)phenyl)-4-methyl-3-(trifluoromethyl)-4,5-dihydro-1H-pyrazol-5-yl)acetic acid]: 4.76 µM; for `COc1cc(N2CC(CCc3ccc(N4N=C(C(F)(F)F)[C@@H](C)[C@@H]4CC(=O)O)cc3)C2)c(Cl)cn1` [Example B36, 2-((4S,5S)-1-(4-(2-(1-(5-chloro-2-methoxypyridin-4-yl)azetidin-3-yl)ethyl)phenyl)-4-methyl-3-(trifluoromethyl)-4,5-dihydro-1H-pyrazol-5-yl)acetic acid]: 0.591 µM; for `COc1cc(N2CCC(Oc3ccc(N4N=C(C(F)(F)F)[C@@H](C)[C@@H]4CC(=O)O)cc3)C3(CC3)C2)c(Cl)cn1` (stereo partly drawn) [Example B37, 2-((4S,5S)-1-(4-((5-(5-chloro-2-methoxypyridin-4-yl)-5-azaspiro[2.5]octan-8-yl)oxy)phenyl)-4-methyl-3-(trifluoromethyl)-4,5-dihydro-1H-pyrazol-5-yl)acetic acid]: 0.774 µM.
